# Starred links: 1 amine or outer side, 2 acyl side, 3 side chain; linkers in the order of their positions; H or OH if unused. Positions of bridges follow the written chain, without caps; N, C: chain ends. Non-standard residues stand in square brackets, D forms with d. Residues, ends and D or L forms follow the SMILES beside them. *: point of attachment. Dmt = Cc1cc(O)cc(C)c1C[C@H](N)C(=O)O; Tic = O=C(O)[C@@H]1Cc2ccccc2CN1; dTic = O=C(O)[C@H]1Cc2ccccc2CN1; NHBn = c1ccc(CN*)cc1; CH2 = C([*:1])[*:2]; NHPh = c1ccc(N*)cc1
# Tests used:
# [1] = molecular target: Delta-type opioid receptor (Rattus norvegicus) (UniProt P33533); assay: (§1) Agonist activity at rat delta opioid receptor transfected in C6 cells by [35S]GTPgammaS binding assay; type: functional, cell-based
# [2] = molecular target: Mu-type opioid receptor (Rattus norvegicus) (UniProt P33535); assay: (§2) Agonist activity at rat mu opioid receptor transfected in C6 cells by [35S]GTPgammaS binding assay; type: functional, cell-based
# Mu-type opioid receptor [3] = molecular target: Mu-type opioid receptor (Cavia porcellus, UniProt P97266); assay: Agonist activity at mu-opioid receptor in guinea pig ileum assessed as inhibition of electrically induced twitches; type: tissue-based
# [4] = molecular target: Kappa-type opioid receptor (Rattus norvegicus, UniProt P34975); assay: Displacement of [3H]DAMGO from kappa opioid receptor in albino Sprague-Dawley rat after 90 mins by liquid scintillation
# [5] = molecular target: T1, Delta-type opioid receptor (Homo sapiens, UniProt P41143); assay: Antagonist activity at […] delta opioid receptor in CD1 mouse assessed as electrically induced twitches
# Mus musculus [6] = assay: Antinociceptive activity in icv dosed mouse after 20 mins by tail flick test; type: functional
# [7] = molecular target: T2, Kappa-type opioid receptor (Homo sapiens, UniProt P41145); assay: Agonist activity at human kappa opioid receptor expressed in CHO cell membrane by [35S]GTP-gammaS binding assay
# [8] = molecular target: T2, Kappa-type opioid receptor; assay: Binding affinity to kappa opioid receptor (unknown origin)
# Mu-type opioid receptor [9] = molecular target: T3, Mu-type opioid receptor (Homo sapiens, UniProt P35372); assay: Binding affinity at mu opioid receptor (unknown origin)
# [10] = molecular target: T1, Delta-type opioid receptor; assay: Binding affinity at delta opioid receptor (unknown origin)
# [11] = molecular target: T1, Delta-type opioid receptor; assay: Partial agonist activity at delta opioid receptor (unknown origin) assessed as [35S]GTPgammaS binding by cell based assay
# Mu-type opioid receptor [12] = molecular target: T3, Mu-type opioid receptor; assay: Agonist activity at mu opioid receptor (unknown origin) assessed as [35S]GTPgammaS binding by cell based assay; type: functional
# [13] = molecular target: T1, Delta-type opioid receptor; assay: Displacement of [3H]naltrindole from human delta opioid receptor expressed in CHO cell membrane; type: cell membranes
# Mu-type opioid receptor [14] = molecular target: T3, Mu-type opioid receptor; assay: Agonist activity at human mu opioid receptor expressed in CHO cells by [35S]GTP-gammaS binding assay
# Mu-type opioid receptor [15] = molecular target: T3, Mu-type opioid receptor; assay: Displacement of [3H]DAMGO from human mu opioid receptor expressed in CHO cell membrane; type: cell membranes
# [16] = molecular target: T1, Delta-type opioid receptor; assay: Antagonist activity at human delta opioid receptor expressed in CHO cell membrane assessed as inhibition of […]-induced [35S]-GTP-gammaS binding; type: cell membranes
# [17] = molecular target: T1, Delta-type opioid receptor; assay: Antagonist activity at human delta opioid receptor expressed in CHO cell membrane assessed as inhibition of DPDPE-induced [35S]-GTP-gammaS binding; type: cell membranes
# Mus musculus [18] = assay: Antinociceptive activity in sc dosed Swiss Webster mouse measured after 30 mins by hot plate test; type: functional; details: 0.5 h
# [19] = molecular target: T1, Delta-type opioid receptor; assay: Displacement of [3H]DPDPE from human delta opioid receptor expressed in CHO cells; type: cell-based
# Mus musculus [20] = assay: Toxicity in sc dosed Kunming mouse assessed as sedation by rotarod test; type: organism-based; details: in vivo
# Mu-type opioid receptor [21] = molecular target: T3, Mu-type opioid receptor; assay: Displacement of [3H]D-Ala2,N-Me-Phe4,Gly5-ol]-Enkephalin from human mu opioid receptor expressed in CHO cell membrane; type: cell membranes
# Mus musculus [22] = assay: Antinociceptive activity in sc dosed Kunming mouse measured after 30 mins by hot plate test; type: functional; details: 0.5 h
# Mu-type opioid receptor [23] = molecular target: T3, Mu-type opioid receptor; assay: Partial agonist activity at mu opioid receptor (unknown origin) expressed in CHO cell membrane assessed as stimulation of [35S]GTP-gamma-S binding; type: cell membranes
# [24] = molecular target: T2, Kappa-type opioid receptor; assay: Displacement of [3H]U69,593 from human kappa opioid receptor expressed in CHO cell membrane; type: cell membranes
# Rattus norvegicus = assay: Analgesic activity in sc dosed rat by tail flick test; type: functional
# [25] = molecular target: Delta-type opioid receptor (Rattus norvegicus, UniProt P33533); assay: as §1; type: functional, cell-based
# Mu-type opioid receptor [26] = molecular target: Mu-type opioid receptor (Rattus norvegicus, UniProt P33535); assay: as §2; type: functional, cell-based
# [27] = molecular target: T1, Delta-type opioid receptor; assay: Agonist activity at human delta-opioid receptor expressed in CHO cells by [35S]GTPgammaS binding assay; type: functional, cell-based
# [28] = molecular target: T4, Delta-type opioid receptor (Mus musculus, UniProt P32300); assay: Agonist activity at delta-opioid receptor in mouse vas deferens; type: tissue-based
# [29] = molecular target: T4, Delta-type opioid receptor; assay: Antagonist activity at delta-opioid receptor in mouse vas deferens assessed as inhibition of DPDPE-induced inhibition of electrically induced twitches; type: tissue-based; details: read-out: pA2 (converted)
# Mu-type opioid receptor [30] = molecular target: T3, Mu-type opioid receptor; assay: Displacement of [3H]DPN from human mu opioid receptor expressed in CHO cells by liquid scintillation counting; type: cell-based
# [31] = molecular target: T1, Delta-type opioid receptor; assay: Displacement of [3H]DPN from human delta opioid receptor expressed in CHO cells by liquid scintillation counting; type: cell-based
# [32] = molecular target: Delta-type opioid receptor (Mus musculus) (UniProt P32300); assay: Antagonist activity at delta-opioid receptor in mouse vas deferens; type: tissue-based
# [33] = molecular target: T1, Delta-type opioid receptor; assay: Partial agonist activity at delta opioid receptor (unknown origin) assessed as inhibition of adenylyl cyclase activity
# [34] = molecular target: T2, Kappa-type opioid receptor; assay: Agonist activity at kappa opioid receptor (unknown origin) assessed as [35S]GTPgammaS binding by cell based assay; type: functional
# T1 sequence (P41143 whole entry): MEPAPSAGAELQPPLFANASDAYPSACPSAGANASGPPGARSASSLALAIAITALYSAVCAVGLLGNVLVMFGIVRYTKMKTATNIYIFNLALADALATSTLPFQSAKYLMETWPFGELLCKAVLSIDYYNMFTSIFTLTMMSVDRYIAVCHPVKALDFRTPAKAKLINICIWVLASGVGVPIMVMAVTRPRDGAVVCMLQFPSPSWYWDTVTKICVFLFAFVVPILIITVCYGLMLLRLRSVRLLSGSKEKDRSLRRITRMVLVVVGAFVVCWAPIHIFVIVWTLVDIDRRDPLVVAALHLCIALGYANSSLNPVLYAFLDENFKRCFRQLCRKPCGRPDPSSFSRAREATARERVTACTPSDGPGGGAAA
# T4 sequence (P32300 whole entry): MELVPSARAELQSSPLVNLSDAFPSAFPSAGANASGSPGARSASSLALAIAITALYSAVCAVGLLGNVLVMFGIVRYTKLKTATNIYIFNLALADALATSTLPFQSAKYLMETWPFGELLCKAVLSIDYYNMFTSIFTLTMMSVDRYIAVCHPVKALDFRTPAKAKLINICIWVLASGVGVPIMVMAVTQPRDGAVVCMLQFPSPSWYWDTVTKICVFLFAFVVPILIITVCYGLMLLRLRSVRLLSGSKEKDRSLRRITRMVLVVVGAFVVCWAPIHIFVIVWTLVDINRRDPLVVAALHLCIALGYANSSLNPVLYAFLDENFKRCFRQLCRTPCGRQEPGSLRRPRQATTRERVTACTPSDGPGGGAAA
# T2 sequence (P41145 whole entry): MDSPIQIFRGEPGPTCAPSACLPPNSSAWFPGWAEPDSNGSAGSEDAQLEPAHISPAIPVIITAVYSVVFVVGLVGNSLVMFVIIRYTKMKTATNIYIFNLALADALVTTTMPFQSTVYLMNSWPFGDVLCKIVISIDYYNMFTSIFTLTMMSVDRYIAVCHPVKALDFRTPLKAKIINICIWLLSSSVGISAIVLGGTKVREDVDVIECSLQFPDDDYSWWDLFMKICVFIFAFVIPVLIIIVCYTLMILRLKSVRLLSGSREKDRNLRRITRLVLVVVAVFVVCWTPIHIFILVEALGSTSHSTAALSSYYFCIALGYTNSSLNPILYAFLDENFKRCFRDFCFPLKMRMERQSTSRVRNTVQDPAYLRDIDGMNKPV
# Delta-type opioid receptor (Rattus norvegicus), sequence (P33533 whole entry): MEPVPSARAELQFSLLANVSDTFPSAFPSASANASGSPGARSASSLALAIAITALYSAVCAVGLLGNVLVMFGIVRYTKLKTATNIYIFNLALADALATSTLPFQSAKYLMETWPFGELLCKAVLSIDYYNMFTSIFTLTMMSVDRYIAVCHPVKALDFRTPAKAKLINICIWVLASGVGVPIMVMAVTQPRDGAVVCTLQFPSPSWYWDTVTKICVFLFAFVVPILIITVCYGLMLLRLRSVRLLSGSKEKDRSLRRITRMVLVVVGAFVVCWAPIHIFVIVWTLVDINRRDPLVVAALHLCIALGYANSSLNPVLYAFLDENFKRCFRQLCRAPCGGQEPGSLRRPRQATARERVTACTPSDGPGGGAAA
# Mu-type opioid receptor (Rattus norvegicus), sequence (P33535 whole entry): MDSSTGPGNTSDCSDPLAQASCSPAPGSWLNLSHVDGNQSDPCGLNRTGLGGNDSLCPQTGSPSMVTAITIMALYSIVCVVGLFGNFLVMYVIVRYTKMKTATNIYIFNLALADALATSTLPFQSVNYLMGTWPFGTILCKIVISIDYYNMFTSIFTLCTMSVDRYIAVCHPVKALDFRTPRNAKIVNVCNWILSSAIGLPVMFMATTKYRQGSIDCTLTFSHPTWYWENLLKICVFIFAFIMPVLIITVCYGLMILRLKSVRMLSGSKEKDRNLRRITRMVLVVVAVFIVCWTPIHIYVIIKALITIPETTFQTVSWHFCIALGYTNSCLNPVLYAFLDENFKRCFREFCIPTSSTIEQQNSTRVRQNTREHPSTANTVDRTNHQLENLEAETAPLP
# T3 sequence (P35372 whole entry): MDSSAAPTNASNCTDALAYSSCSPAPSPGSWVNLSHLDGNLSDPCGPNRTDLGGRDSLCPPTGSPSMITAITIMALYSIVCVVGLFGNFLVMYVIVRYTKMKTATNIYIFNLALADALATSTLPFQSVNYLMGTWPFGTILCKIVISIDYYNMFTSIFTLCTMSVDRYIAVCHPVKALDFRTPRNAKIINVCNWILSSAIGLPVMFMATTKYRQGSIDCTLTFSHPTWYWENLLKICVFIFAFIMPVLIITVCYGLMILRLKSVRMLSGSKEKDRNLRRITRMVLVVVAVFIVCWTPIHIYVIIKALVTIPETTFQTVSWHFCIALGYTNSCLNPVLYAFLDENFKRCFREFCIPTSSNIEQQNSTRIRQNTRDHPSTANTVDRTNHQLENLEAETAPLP
# Mu-type opioid receptor (Cavia porcellus, UniProt P97266), sequence (P97266 whole entry): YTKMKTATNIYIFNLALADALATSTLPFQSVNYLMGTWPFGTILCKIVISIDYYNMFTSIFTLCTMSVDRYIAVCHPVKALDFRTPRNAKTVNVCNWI
# Delta-type opioid receptor (Rattus norvegicus, UniProt P33533), sequence (P33533 whole entry): as the sequence (P33533 whole entry) above
# Delta-type opioid receptor (Mus musculus), sequence (P32300 whole entry): as the sequence (P32300 whole entry) above
# Mu-type opioid receptor (Rattus norvegicus, UniProt P33535), sequence (P33535 whole entry): as the sequence (P33535 whole entry) above
# Kappa-type opioid receptor (Rattus norvegicus, UniProt P34975), sequence (P34975 whole entry): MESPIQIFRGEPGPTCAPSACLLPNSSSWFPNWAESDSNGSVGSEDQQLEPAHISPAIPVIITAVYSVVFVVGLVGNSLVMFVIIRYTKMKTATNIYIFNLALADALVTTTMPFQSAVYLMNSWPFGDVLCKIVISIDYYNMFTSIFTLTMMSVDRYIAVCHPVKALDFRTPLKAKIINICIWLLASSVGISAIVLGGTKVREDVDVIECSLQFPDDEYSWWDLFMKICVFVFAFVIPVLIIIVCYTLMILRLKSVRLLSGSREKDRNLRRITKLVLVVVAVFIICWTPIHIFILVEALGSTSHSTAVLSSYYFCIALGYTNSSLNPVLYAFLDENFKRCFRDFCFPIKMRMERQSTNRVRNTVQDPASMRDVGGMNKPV
compound,measurement,setting,value
CCCC[C@@H]1NC(=O)[C@H](Cc2cccc3ccccc23)NC(=O)[C@@H](NC(=O)[C@@H](N)Cc2ccc(O)cc2)CSSC[C@H](C(N)=O)NC1=O,Emax,[1],100%
same,Emax,[2],100%
C=CCN1C[C@H](C)N([C@@H](c2cccc(O)c2)c2cccc(C(=O)N(C)c3cccc(F)c3)c2)C[C@H]1C,IC50,Mu-type opioid receptor [3],1 nM
same,Ki,[4],0.46 nM
same,IC50,[5],3.4 nM
O=C(/C=C/C(=O)Oc1ccc2c(c1)[C@@]13CCCC[C@H]1[C@@H](C2)N(CC1CCC1)CC3)Oc1ccc2c(c1)[C@@]13CCCC[C@H]1[C@@H](C2)N(CC1CCC1)CC3,ED50,Mus musculus [6],0.27 nmol
same,EC50,[7],4.3 nM
O=C1c2ccc(O)cc2[C@@]23CCCC[C@H]2[C@@H]1N(CC1CCCO1)CC3 (stereo not given in full),Ki,[8],0.18 nM
same,Ki,Mu-type opioid receptor [9],0.38 nM
same,Ki,[10],1 nM
CN1CC[C@]23c4c5ccc(O)c4O[C@@]2(C)c2[nH]c4ccccc4c2C[C@@]3(CCCc2ccccc2)[C@H]1C5,Ki,Mu-type opioid receptor [9],10.2 nM
same,EC50,[11],0.87 nM
same,Ki,[10],1.95 nM
same,EC50,Mu-type opioid receptor [12],45.1 nM
Cc1cc(O)cc(C)c1C[C@H](N)C(=O)N1Cc2ccccc2C[C@H]1C(=O)NCC(=O)N1CCc2ccccc2C1,Ki,[13]; cho,0.75 nM
same,EC50,Mu-type opioid receptor [14]; cho,22 nM
same,Ki,Mu-type opioid receptor [15]; cho,3.3 nM
same,IC50,[16]; cho,2.3 nM
Cc1cc(O)cc(C)c1C[C@H](N)C(=O)N1Cc2ccccc2C[C@H]1CN[C@@H](Cc1ccccc1)C(=O)N[C@@H](Cc1ccccc1)C(N)=O,Ki,Mu-type opioid receptor [9],0.94 nM
same,Ki,[10],0.44 nM
Cc1cc(O)cc(C)c1C[C@H](N)C(=O)N1Cc2ccccc2C[C@@H]1C(=O)NCC(=O)NCc1ccccc1 (H-[Dmt]-[dTic]-Gly-NHBn),pKb,[17],9.81
CO[C@@]12CCC(=O)[C@]3(C)Oc4c(O)ccc5c4[C@@]31CCN(C)[C@@H]2C5,Ki,[8],25.2 nM
same,Ki,Mu-type opioid receptor [9],0.01 nM
same,Ki,[10],13.3 nM
CCCC[C@@H]1NC(=O)[C@H](Cc2cccc3ccccc23)NC(=O)[C@@H](NC(=O)[C@@H](N)Cc2ccc(O)cc2)CSSC[C@H](C(=O)O)NC1=O,Emax,[1],100%
same,Emax,[2],100%
Cc1cc(O)cc(C)c1C[C@H](N)C(=O)N1Cc2ccccc2C[C@@H]1C(=O)NCC(=O)N(c1ccccc1)c1ccccc1,Ki,[13],0.94 nM
same,EC50,Mu-type opioid receptor [14],4.8 nM
same,Ki,Mu-type opioid receptor [15],1.71 nM
same,IC50,[16],8.3 nM
CN1CC[C@]23c4c5ccc(O)c4O[C@@]2(CO)C(=O)CC[C@@]3(O)[C@H]1C5,ED50,Mus musculus [18],4.3 mg/kg
same,EC50,Mu-type opioid receptor [14],35 nM
same,Ki,Mu-type opioid receptor [15],3.2 nM
same,Ki,[19],208 nM
Nc1nc2cc3c(cc2s1)CC1[C@@H]2CCCC[C@]32CCN1CC1CC1,ED50,Mus musculus [20],1.94 mg/kg
same,Ki,Mu-type opioid receptor [21],1.5 nM
same,ED50,Mus musculus [22],1.46 mg/kg
same,EC50,Mu-type opioid receptor [23],73 nM
same,Ki,[24],0.049 nM
NC(=O)[C@@H]1CSCSC[C@@H](NC(=O)[C@@H](N)Cc2ccc(O)cc2)C(=O)N[C@@H](Cc2ccccc2)C(=O)N[C@@H](Cc2ccccc2)C(=O)N1 (H-Y[dC]FFC-NH2; linker 2-5 via CH2),Ki,Mu-type opioid receptor [9],0.016 nM
same,Ki,[10],1.8 nM
NC(=O)[C@@H]1CSSC[C@@H](NC(=O)[C@@H](N)Cc2ccc(O)cc2)C(=O)N[C@@H](Cc2ccccc2)C(=O)N[C@@H](Cc2ccccc2)C(=O)N1 (H-Y[dC]FFC-NH2; disulfide 2-5),Emax,[1],69%
same,Emax,[2],77%
CN1CC[C@]23c4c5ccc(O)c4O[C@H]2[C@@H](O)C=C[C@H]3[C@H]1C5 [MORPHINE],ED50,Rattus norvegicus,2.7 mg/kg
CCCC[C@@H]1NC(=O)[C@H](Cc2cccc3ccccc23)NC(=O)[C@H](NC(=O)[C@@H](N)Cc2ccc(O)cc2)CSSC[C@@H](C(=O)O)NC1=O,EC50,[25],22 nM
same,EC50,Mu-type opioid receptor [26],5.1 nM
Cc1cc(O)cc(C)c1C[C@H](N)C(=O)N1Cc2ccccc2C[C@@H]1C(=O)NCc1nc2ccccc2[nH]1,Ki,Mu-type opioid receptor [9],0.5 nM
same,EC50,[27],0.0813 nM
same,Ki,[10],0.021 nM
same,EC50,[28],0.02 nM
C[C@H]1[C@H]2Cc3ccc(O)cc3[C@]1(C)CCN2CCC(=O)Nc1ccccc1,Ki,Mu-type opioid receptor [9],0.83 nM
same,ED50,Rattus norvegicus,2.03 mg/kg
same,Ki,[10],29 nM
Cc1cc(O)cc(C)c1C[C@H](N)C(=O)N1Cc2ccccc2C[C@H]1C(=O)N[C@@H](Cc1ccccc1)C(=O)N[C@@H](Cc1ccccc1)C(N)=O (H-[Dmt][Tic]FF-NH2),Ki,Mu-type opioid receptor [9],1.19 nM
O=C(CCCCCCCCC(=O)Oc1ccc2c(c1)[C@@]13CCCC[C@H]1[C@@H](C2)N(CC1CCC1)CC3)Oc1ccc2c(c1)[C@@]13CCCC[C@H]1[C@@H](C2)N(CC1CCC1)CC3,ED50,Mus musculus [6],3 nmol
Cc1cc(O)cc(C)c1C[C@H](N)C(=O)N1Cc2ccccc2C[C@H]1C(=O)NCC(=O)Nc1ccccc1 (H-[Dmt]-[Tic]-Gly-NHPh),Ki,Mu-type opioid receptor [9],0.042 nM
same,Ki,[10],0.16 nM
CCCC[C@@H]1NC(=O)[C@H](Cc2cccc3ccccc23)NC(=O)[C@H](NC(=O)[C@@H](N)Cc2ccc(O)cc2)CSSC[C@@H](C(N)=O)NC1=O,EC50,[25],22 nM
Cc1cc(O)cc(C)c1C[C@H](N)C(=O)N1Cc2ccccc2C[C@H]1C(=O)NCC(=O)NCc1ccccc1 (H-[Dmt]-[Tic]-Gly-NHBn),Ki,Mu-type opioid receptor [9],0.031 nM
same,Kb,[29],0.708 nM
same,EC50,Mu-type opioid receptor [3],31.6 nM
same,Ki,Mu-type opioid receptor [30],16.2 nM
same,Ki,[10],0.16 nM
same,EC50,[28],2.57 nM
same,Ki,[31],0.151 nM
N[C@@H](Cc1ccc(O)cc1)C(=O)N1Cc2ccccc2CC1CN[C@@H](Cc1ccccc1)C(=O)NC(CC1CCCCC1)C(=O)O (stereo not given in full),Ki,Mu-type opioid receptor [9],1050 nM
same,Ki,[10],0.259 nM
same,Ke,[32],0.175 nM
Oc1ccc2c(c1)[C@@]13CCCC[C@H]1[C@@H](C2)N(CC1CCC1)CC3 [BUTORPHAN],Ki,[8],0.073 nM
NC(=O)[C@H]1CSCSC[C@H](NC(=O)[C@@H](N)Cc2ccc(O)cc2)C(=O)N[C@@H](Cc2ccccc2)C(=O)N[C@@H](Cc2ccc3ccccc3c2)C(=O)N1,Ki,[8],1.3 nM
same,Ki,Mu-type opioid receptor [9],0.47 nM
same,EC50,[33],36 nM
same,Emax,[34],89%
same,Ki,[10],0.48 nM
same,Emax,Mu-type opioid receptor [12],99%

# Source: ChEMBL document CHEMBL3758122, “Multitarget opioid ligands in pain relief: New players in an old game” (Eur J Med Chem, 2016)
